Source: patent US7727956B2, “Deoxonadepsipeptides” (Aicuris GmbH & Co. KG, priority 2004, dated 2010)
In brackets after ≈: the same amount, converted by molar mass. Read-outs that look alike come from different tables or passages of the source. Starred links: 1 amine or outer side, 2 acyl side, 3 side chain; linkers in the order of their positions; H or OH if unused. Positions of bridges follow the written chain, without caps; N, C: chain ends. Non-standard residues stand in square brackets, D forms with d. Residues, ends and D or L forms follow the SMILES beside them. X3 = C[Si](C)(C)C[C@H](N)CN([C@@H](C[Si](C)(C)C)C(=O)[*:2])[*:1]; X4 = CC(C)(C)C[C@@H](C(=O)[*:2])N(C[C@@H](N)C[Si](C)(C)C)[*:1]; X1 = CC(C)C[C@@H](C(=O)[*:2])N(C[C@@H](N)C[Si](C)(C)C)[*:1]; Phe(3R-OH) = O=C([C@@H](N[*:1])[C@H](O[*:3])c1ccccc1)[*:2]; X2 = CC(C)(C)C[C@H](N)CN([C@@H](CC(C)(C)C)C(=O)[*:2])[*:1]; Asn(3S-OH) = NC(=O)[C@@H](O)[C@H](N)C(=O)O; Leu(3R-OH) = CC(C)[C@@H](O)[C@H](N)C(=O)O; aThr = C[C@H](O)[C@H](N)C(=O)O

What was measured:
[1] = test system: Streptococcus pneumoniae G9a; format: cell-based
Procedure: (§1) Determination of the Minimum Inhibitory Concentration (MIC):
(§2) The MIC is determined in the liquid dilution test in accordance with the NCCLS guidelines. Overnight cultures of Staphylococcus aureus 133, Entercococcus faecalis 27159, E. faecium 4147 and Streptococcus pneumoniae G9a are incubated with the described test substances in a 1:2 dilution series. The MIC determination is carried out with a cell count of 105 microorganisms per ml in Isosensitest medium (Difco, Irvine/USA), with the exception of S. pneumoniae, which is tested in BHI broth (Difco, Irvine/USA) with 10% bovine serum at a cell count of 106 microorganisms per ml. The cultures are incubated at 37° C. for 18-24 hours, S. pneumoniae in the presence of 10% CO2.
(§3) The lowest substance concentration in each case at which no visible bacterial growth occurs any more is defined as the MIC. The MIC values are reported in μg/ml.

[2] = test system: Staphylococcus aureus 133; format: cell-based
Procedure: as §1, §2, §3

E. faecalis ICB 27159 = format: cell-based, Entercococcus faecalis
Procedure: as §1, §2, §3

[3] = BHI broth with 10% bovine serum, 37° C., 18-24 hours, 10% CO2
[4] = Isosensitest medium, 37° C., 18-24 hours

MIC S. pneumoniae ([1]; G9a) [mg/L] | MIC S. aureus 133 [2]; 133 [mg/L] | MIC E. faecalis ICB 27159 (E. faecalis ICB 27159; ICB 27159) [mg/L] | Structure (SMILES) | MIC S. pneumoniae [1, 3] [mg/L] | MIC S. aureus 133 [2, 4] [mg/L] | MIC E. faecalis ICB 27159 (E. faecalis ICB 27159; [4]) [mg/L]
– | – | – | CC[C@H](C)[C@@H]1NC(=O)[C@@H](CCCNC(=N)N)NC(=O)[C@H](CC(C)C)NC(=O)[C@H]([C@H](O)C(C)C)NC(=O)[C@@H](NC(=O)[C@H](CC(C)C)NC[C@@H](N)C[Si](C)(C)C)[C@@H](c2ccccc2)OC(=O)[C@H](CO)NC(=O)[C@H]([C@H](O)C(N)=O)NC(=O)CNC(=O)[C@H]([C@H](C)O)NC1=O [Example 5, N-[(2R)-2-Amino-3-trimethylsilyl-prop-1-yl]de(1-D-leucine) lysobactin trishydro-trifluoroacetate] (H-[X1][Phe(3R-OH)][Leu(3R-OH)]L[dR]I[aThr]G[Asn(3S-OH)]S; ester 2-C) | 0.063 (≈ 0.0487 µM) | 0.5 (≈ 0.387 µM) | 1 (≈ 0.774 µM)
0.063 (≈ 0.0488 µM) | 0.5 (≈ 0.387 µM) | 1 (≈ 0.775 µM) | CC[C@H](C)[C@@H]1NC(=O)[C@@H](CCCNC(=N)N)NC(=O)[C@H](CC(C)C)NC(=O)[C@H]([C@H](O)C(C)C)NC(=O)[C@@H](NC(=O)[C@H](CC(C)(C)C)NC[C@@H](N)CC(C)(C)C)[C@@H](c2ccccc2)OC(=O)[C@H](CO)NC(=O)[C@H]([C@H](O)C(N)=O)NC(=O)CNC(=O)[C@H]([C@H](C)O)NC1=O [Example 8, N-{N-[(2S)-2-Amino-4,4-dimethylpent-1-yl]-β-tBu-Ala-de(1-D-leucine-2-leucine)-lysobactintris-hydrofluoro-acetate] (H-[X2][Phe(3R-OH)][Leu(3R-OH)]L[dR]I[aThr]G[Asn(3S-OH)]S; ester 2-C) | – | – | –
– | – | – | CC[C@H](C)[C@@H]1NC(=O)[C@@H](CCCNC(=N)N)NC(=O)[C@H](CC(C)C)NC(=O)[C@H]([C@H](O)C(C)C)NC(=O)[C@@H](NC(=O)[C@H](C[Si](C)(C)C)NC[C@@H](N)C[Si](C)(C)C)[C@@H](c2ccccc2)OC(=O)[C@H](CO)NC(=O)[C@H]([C@H](O)C(N)=O)NC(=O)CNC(=O)[C@H]([C@H](C)O)NC1=O [Example 14, N-{N-[(2R)-2-Amino-3-trimethylsilyl-prop-1-yl]-(β-trimethylsilyl)-Ala]}de(1-D-leucine-2-leucine)-lysobactin tris-hydrotrifluoro-acetate] (H-[X3][Phe(3R-OH)][Leu(3R-OH)]L[dR]I[aThr]G[Asn(3S-OH)]S; ester 2-C) | 0.0156 (≈ 0.0118 µM) | 0.25 (≈ 0.189 µM) | 0.125 (≈ 0.0945 µM)
– | – | – | CC[C@H](C)[C@@H]1NC(=O)[C@@H](CCCNC(=N)N)NC(=O)[C@H](CC(C)C)NC(=O)[C@H]([C@H](O)C(C)C)NC(=O)[C@@H](NC(=O)[C@H](CC(C)(C)C)NC[C@@H](N)C[Si](C)(C)C)[C@@H](c2ccccc2)OC(=O)[C@H](CO)NC(=O)[C@H]([C@H](O)C(N)=O)NC(=O)CNC(=O)[C@H]([C@H](C)O)NC1=O [Example 15, N-{N-[(2R)-2-Amino-3-tri-methylsilylprop-1-yl]-(β-tBu-Ala)}-de(1-D-leucine-2-leucine) lysobactin trishydro-trifluoroacetate] (H-[X4][Phe(3R-OH)][Leu(3R-OH)]L[dR]I[aThr]G[Asn(3S-OH)]S; ester 2-C) | 0.063 (≈ 0.0482 µM) | 0.5 (≈ 0.383 µM) | 1 (≈ 0.765 µM)
